Data taken from US20110028566A1, “COMPOSITIONS AND PRODUCTS CONTAINING CYCLOALIPHATIC DIOL ANTIMICROBIAL AGENTS AND METHODS OF USING THE COMPOSITIONS AND PRODUCTS” (EASTMAN CHEMICAL COMPANY, priority 2009, published 2011).

Legend:
Assay in all cases: Microbial challenge testing in BPW
Assay type in all cases: cell-based
[1] = system: Aspergillus niger
Description: (§1) The microorganisms used in challenge tests are given in Table 3, designated as either ATCC (American Type Culture Collection) or wild type. These wild type organisms were problematic organisms previously isolated from chemical products. In the description for each organism, the bacteria are indicated as either GN (Gram negative) or GP (Gram positive).
(§2) All of the microorganisms were grown in Tryptose Soy Broth (TSB), DIFCO™ available from Becton, Dickinson and Company, containing 1% dextrose. Aspergillus niger and Candida albicans were incubated at 22° C.±2° C. for at least 96 hours. All bacteria were incubated at 35° C.±2° C. in a humidified incubator for at least 96 hours.
(§3) Aspergillus niger and Candida albicans were also grown on Sabouraud dextrose agar (SDA) at 22° C.±2° C. for 7 to 14 days or until full sporulation was achieved.
(§4) The following procedure was followed to determine the amount of each challenge material (inoculum broth) required to produce a 10^8 cfu/mL challenge, which is equivalent to a final test-sample microbial concentration of 10^5 to 10^6 cfu (colony-forming units)/mL.
(§5) Using a sterile serological pipette, 1 mL of the growth from each TSB culture was transferred into tubes containing 9 mL phosphate buffer (pH 7.2) and mixed thoroughly. This process was repeated to make serial 1:10 dilutions. Then 0.1 mL of each sample and dilution was inoculated onto agar plates to produce the equivalent of a further 1:10 dilution. C. albicans and A. niger were inoculated onto SDA and bacteria were inoculated onto Plate Count Agar (PCA), DIFCO™ available from Becton, Dickinson and Company. The 0.1 mL aliquots were evenly distributed on the plates using the spread-plate technique. The spread-plate technique is performed by spreading the aliquot over the entire plate surface using a sterile spreading rod while rotating the plate with a rotary auto-plater. After the inoculum was absorbed completely, each plate was inverted and incubated (fungi at 22° C.±2° C. and bacteria at 35° C.±2° C.).
(§6) After incubation for at least 48 hours, colonies that had developed on the agar plates were counted and recorded with the corresponding dilution. If counting had to be delayed temporarily, plates were refrigerated, preferably no more than 24 hours, until they could be counted. The number of cfu/mL was determined by multiplying the count by the dilution factor for that particular plate.
(§7) Turbidity in Nepholemetric Turbidity Units (NTU) was measured for each serial dilution using the HF-Micro 100 Model Turbidimeter. For each microorganism, the plate counts were compared to the turbidity readings.
Aspergillus niger cultures were harvested and spores dislodged from the SDA on which they were grown by rubbing the growth gently with a sterile inoculating loop. The spores were then mixed into the broth culture that had been incubated with a sterile magnetic stir bar to reduce pellicle formation. The spore-culture mixture was filtered repeatedly through sterile, non-absorbent cotton and harvested repeatedly, adjusting vegetative cells and spores to a level of 1.0×10^8. A hemocytometer was used to verify the final challenge concentration.
(§8) Control substrates (“broth alone”) were prepared for each microorganism separately in triplicate by adding 13.5 mL of BPW (pH 7.0) containing 1% (w/v) dextrose to each 20-mL glass tube; then adding 1.5 mL challenge material to produce a final concentration at time zero of 10^5 to 10^6 cfu/mL and a total volume of 15 mL.
(§9) Test sample substrates were prepared containing each test material (1,4-CHDM, etc) or combination of test materials at the concentrations shown in Tables 5 and 6.

[2] = system: Candida albicans
Description: as §1, §2, §3, §4, §5, §6, §7
On the day of challenge, the Candida albicans inoculum broth was poured through non-absorbent sterile gauze and centrifuged. The […] was then diluted with phosphate buffer (pH 7.2) until the desired turbidity was reached. Using a hemocytometer, a determination was made whether the challenge contained the desired concentration. Dilutions were made through 1.0×10^8 and three SDA spread plates were inoculated with 0.1 mL of each dilution.
as §8, §9

[3] = system: Aeromonas sp.
Description: as §1, §2, §4, §5, §6, §7, §8
(§10) Test sample substrates were prepared containing each test material (1,4-CHDM, etc) or combination of test materials at the concentrations shown in Tables 5 and 6. Sample substrates were prepared in triplicate, except those substrates containing PE or CG which were prepared in duplicate. Substrates were prepared by adding BPW containing 1% (w/v) dextrose to each 20-mL glass tube, then adding the test material in the amount appropriate to achieve the desired weight/volume percent (g/100 mL) and to obtain a total volume of BPW with dextrose and test material of 13.5 mL. Then 1.5 mL challenge material was added to produce a final concentration at time zero of 10^5 to 10^6 cfu/mL of the respective organism and a total test sample substrate volume of 15 mL.
(§11) After mixing, all challenged substrates were incubated at 35° C.±2° C. for 14 days and then at ambient room temperature.

[4] = system: Bacillus subtilis
Description: as §1, §2, §4, §5, §6, §7, §8, §10, §11

[5] = system: Burkholderia cepacia
Description: as §1, §2, §4, §5, §6, §7, §8, §10, §11

[6] = system: Escherichia coli
Description: as §1, §2, §4, §5, §6, §7, §8, §10, §11

OCC1CCCC(CO)C1 (stereo not shown) [1,3-CHDM]
Grade code A. niger ([1]; 0.5%, 3 days incubation): 5 | Grade code A. niger ([1]; 0.5%, 13 days incubation): 5 | Grade code A. niger ([1]; 0.5%, 30 days incubation): 5 | Grade code A. niger ([1]; 1.25%, 3 days incubation): 5 | Grade code A. niger ([1]; 1.25%, 13 days incubation): 4 | Grade code A. niger ([1]; 1.25%, 30 days incubation): 4 | Grade code A. niger ([1]; 2.5%, 3 days incubation): 4 | Grade code A. niger ([1]; 2.5%, 13 days incubation): 4 | Grade code A. niger ([1]; 2.5%, 30 days incubation): 4 | Grade code C. albicans ([2]; 0.5%, 3 days incubation): 4 (1001 to 10,000 colonies (thus 10,000 cfu/mL to 100,000 cfu/mL)) | Grade code C. albicans ([2]; 0.5%, 14 days incubation): 4 (1001 to 10,000 colonies (thus 10,000 cfu/mL to 100,000 cfu/mL)) | Grade code C. albicans ([2]; 0.5%, 30 days incubation): 4 (1001 to 10,000 colonies (thus 10,000 cfu/mL to 100,000 cfu/mL)) | Grade code C. albicans ([2]; 1.25%, 3 days incubation): 4 (1001 to 10,000 colonies (thus 10,000 cfu/mL to 100,000 cfu/mL)) | Grade code C. albicans ([2]; 1.25%, 14 days incubation): 4 (1001 to 10,000 colonies (thus 10,000 cfu/mL to 100,000 cfu/mL)) | Grade code C. albicans ([2]; 1.25%, 30 days incubation): 4 (1001 to 10,000 colonies (thus 10,000 cfu/mL to 100,000 cfu/mL)) | Grade code C. albicans ([2]; 2.5%, 3 days incubation): 4 (1001 to 10,000 colonies (thus 10,000 cfu/mL to 100,000 cfu/mL)) | Grade code C. albicans ([2]; 2.5%, 14 days incubation): 4 (1001 to 10,000 colonies (thus 10,000 cfu/mL to 100,000 cfu/mL)) | Grade code C. albicans ([2]; 2.5%, 30 days incubation): 4 (1001 to 10,000 colonies (thus 10,000 cfu/mL to 100,000 cfu/mL)) | Grade code Aeromonas sp ([3]; 0.5%, 3 days incubation): 5 (More than 10,000 colonies estimated (thus >100,000 cfu/mL)) | Grade code Aeromonas sp ([3]; 0.5%, 14 days incubation): 4 (1001 to 10,000 colonies (thus 10,000 cfu/mL to 100,000 cfu/mL)) | Grade code Aeromonas sp ([3]; 0.5%, 30 days incubation): 4 (1001 to 10,000 colonies (thus 10,000 cfu/mL to 100,000 cfu/mL)) | Grade code Aeromonas sp ([3]; 1.25%, 3 days incubation): 4 (1001 to 10,000 colonies (thus 10,000 cfu/mL to 100,000 cfu/mL)) | Grade code Aeromonas sp ([3]; 1.25%, 14 days incubation): 4 (1001 to 10,000 colonies (thus 10,000 cfu/mL to 100,000 cfu/mL)) | Grade code Aeromonas sp ([3]; 1.25%, 30 days incubation): 4 (1001 to 10,000 colonies (thus 10,000 cfu/mL to 100,000 cfu/mL)) | Grade code B. subtilis ([4]; 0.5%, 3 days incubation): 4 (1001 to 10,000 colonies (thus 10,000 cfu/mL to 100,000 cfu/mL)) | Grade code B. subtilis ([4]; 0.5%, 14 days incubation): 4 (1001 to 10,000 colonies (thus 10,000 cfu/mL to 100,000 cfu/mL)) | Grade code B. subtilis ([4]; 0.5%, 30 days incubation): 4 (1001 to 10,000 colonies (thus 10,000 cfu/mL to 100,000 cfu/mL)) | Grade code B. subtilis ([4]; 1.25%, 3 days incubation): 4 (1001 to 10,000 colonies (thus 10,000 cfu/mL to 100,000 cfu/mL)) | Grade code B. subtilis ([4]; 1.25%, 14 days incubation): 4 (1001 to 10,000 colonies (thus 10,000 cfu/mL to 100,000 cfu/mL)) | Grade code B. subtilis ([4]; 1.25%, 30 days incubation): 4 (1001 to 10,000 colonies (thus 10,000 cfu/mL to 100,000 cfu/mL)) | Grade code B. subtilis ([4]; 2.5%, 3 days incubation): 4 (1001 to 10,000 colonies (thus 10,000 cfu/mL to 100,000 cfu/mL)) | Grade code B. subtilis ([4]; 2.5%, 14 days incubation): 4 (1001 to 10,000 colonies (thus 10,000 cfu/mL to 100,000 cfu/mL)) | Grade code B. subtilis ([4]; 2.5%, 30 days incubation): 4 (1001 to 10,000 colonies (thus 10,000 cfu/mL to 100,000 cfu/mL)) | Grade code B. cepacia ([5]; 0.5%, 3 days incubation): 5 (More than 10,000 colonies estimated (thus >100,000 cfu/mL)) | Grade code B. cepacia ([5]; 0.5%, 14 days incubation): 5 (More than 10,000 colonies estimated (thus >100,000 cfu/mL)) | Grade code B. cepacia ([5]; 0.5%, 30 days incubation): 5 (More than 10,000 colonies estimated (thus >100,000 cfu/mL)) | Grade code B. cepacia ([5]; 1.25%, 3 days incubation): 4.7 | Grade code B. cepacia ([5]; 1.25%, 14 days incubation): 4.7 | Grade code B. cepacia ([5]; 1.25%, 30 days incubation): 4.7 | Grade code B. cepacia ([5]; 2.5%, 3 days incubation): 4 (1001 to 10,000 colonies (thus 10,000 cfu/mL to 100,000 cfu/mL)) | Grade code B. cepacia ([5]; 2.5%, 14 days incubation): 4 (1001 to 10,000 colonies (thus 10,000 cfu/mL to 100,000 cfu/mL)) | Grade code B. cepacia ([5]; 2.5%, 30 days incubation): 4 (1001 to 10,000 colonies (thus 10,000 cfu/mL to 100,000 cfu/mL)) | Grade code E. coli ([6]; 0.5%, 3 days incubation): 5 (More than 10,000 colonies estimated (thus >100,000 cfu/mL)) | Grade code E. coli ([6]; 0.5%, 14 days incubation): 5 (More than 10,000 colonies estimated (thus >100,000 cfu/mL)) | Grade code E. coli ([6]; 0.5%, 30 days incubation): 5 (More than 10,000 colonies estimated (thus >100,000 cfu/mL)) | Grade code E. coli ([6]; 1.25%, 3 days incubation): 5 (More than 10,000 colonies estimated (thus >100,000 cfu/mL))
